The values below are quoted from earlier work in US10695437B2, “Polycomplexes of poly-lysine compounds for preventing and/or combatting amyotrophic lateral sclerosis” (GEMAC, priority 2016, dated 2020).

The subject of this series is ALS. The settings on record: ALS patients.

Take `Nc1nc2ccc(OC(F)(F)F)cc2s1` [Riluzole]: the Side effects result was “numerous side effects (liver toxicity)”.
